Legend:
Type in all cases: in vivo, mice
[1] = test system: serum serotonin, dopamine, melatonin; assay: Serum melatonin, serotonin and dopamine by ELISA kits; conditions: CM: caffeine then 2 mg/kg i.p.
Procedure: (§1) Working solutions of caffeine, melatonin, and valerian were prepared on a daily basis and administered intraperitoneally (i.p.). Based on the previous studies caffeine-induced insomnia is dose-dependent with 7.5 mg/kg i.p. caffeine maintaining wakefulness for at least 2 h. Electrical activity of the brain was monitored for 90 minutes following the caffeine injection and spike frequency/spike amplitude analysis was performed via the Labchart 7.3.3 program. Ninety (90) minutes after the caffeine injection, animals were deeply anesthetized with 4% isofluorane (30% O2, remainder N2O). Brains were rapidly removed, frozen on dry ice and stored at −80° C. for further analysis.
(§2) Serum melatonin, serotonin, and dopamine was measured by ELISA kits. Brain levels of MDA was measured by HPLC. Brain activities of SOD, CAT and GPHx was measured using ELISA kits.

[2] = test system: brain tissue MDA, SOD, CAT, GPx; assay: Brain oxidative stress markers (MDA by HPLC; SOD, CAT, GPx by ELISA kits); conditions: CM: caffeine then 2 mg/kg i.p.; vs C group
Procedure: as §1, §2

[3] = test system: GABAAR2, GABAB R1, GABAB R2, 5-HT1A; assay: Western blot of brain GABAergic and serotonergic receptors; conditions: CM: caffeine then 2 mg/kg i.p.; vs C group
Procedure: as §1
(§3) Protein concentrations were determined using Western blot analysis. 50 μg of protein was electrophoresed on 4-15% Tris-Glycine polyacrylamide gels and transferred to Immobilon-P PVDF membranes, blocked for 1 h in 5% skim milk and incubated overnight at 4° C. with either GABAAR2, GABAB R1, GABAB-R2, 5H-T1A, GluA1, GluN1, GluN2 A, Bcl-2, Bax, and Caspase-3. Membranes were then incubated with horseradish peroxidase (HRP) conjugated IgG secondary antibody. Bands were quantified using Image software and normalized to actin as a loading control.

[4] = test system: GluA1, GluN2A, GluN1; assay: Western blot of brain glutamate receptors; conditions: CM: caffeine then 2 mg/kg i.p.; vs C group
Procedure: as §1, §3

[5] = test system: Bax, Bcl-2, Caspase-3; assay: Western blot of brain Bax, Bcl-2 and Caspase-3; conditions: CM: caffeine then 2 mg/kg i.p.; vs C group
Procedure: as §1, §3

## COc1ccc2[nH]cc(CCNC(C)=O)c2c1 [Melatonin]
[1]; vs C group
  serum dopamine levels: significant increase
  serum serotonin levels: significant increase
[1]; vs all the other groups
  melatonin levels in serum: significantly higher
[2]
  brain CAT: significant increase
  brain GPx: significant increase
  brain MDA levels: significant reduction
  brain SOD: significant increase
[3]
  brain 5-HT1A levels: significantly increased
  brain GABAB R1: significant increase
[4]
  brain GluA1 receptors: significant increase
  brain GluN1 receptors: significant increase
  brain GluN2A receptors: significant increase
[5]
  brain Bax: significant increase
  brain Bcl-2: significant decrease
  brain Caspase-3: significant increase
